Where two headings read alike, the source gives them in different places.
Columns and labels:
[1] = system: p(Ser^293)E1α levels in PC-3 cells; test: Phospho(Ser293) E1α MSD ELISA in PC-3 cells; assay type: cell-based; conditions: for IC50: Homo sapiens, PD marker (ELISA); for Degree of suppression of p(Ser^293)E1α levels (plateau), reduction compared to DMSO control: MSD ELISA
Description: Phospho(Ser^293) E1α MSD ELISA assay: All reagents were purchased from Meso Scale Discovery (Maryland, USA) unless otherwise stated. Following compound treatment, cells were treated with lysis buffer (TBS pH 7.4, 1% Tween-20, 1 mM EGTA, 1 mM EDTA, 1 mM NaF, protease and phosphatase inhibitor cocktails (Roche)) on ice and the lysates added to standard bind 96 well MSD plates which were pre-loaded with custom phospho(Ser^293)E1α ‘capture’ antibody (2 μg/ml in TBST containing 3% (w/v) blocker A) (Genescript) and blocked with 3% (w/v) blocker A, followed by a 1 h incubation at RT. The wells were then washed 3X with TBST (0.05% tween 20) followed by the addition of 2 μg/ml E1α ‘detection’ antibody (2 μg/ml) (Abcam) and a further 1 h incubation at RT. The wells were again washed 3X with TBST followed by the addition of 1 μg/ml Goat anti-mouse Sulfotag antibody, and a further TBST wash prior to the addition of 2X read buffer T. The chemiluminescent signal was then measured on a MSD sector imager 2400.

PC-3 cells [2] = test: Oxygen consumption (oxytherm oxygen electrode); assay type: cell-based
Description: Oxygen consumption was measured using an ‘oxytherm’ oxygen electrode system (Hansatech). PC-3 cells were trypsinized and re-suspended to a density of 1.7×10^6cells/mL in RPMI-1640 media containing 10% FCS. Compounds or DMSO were then added to 1.5 mL aliquots of this suspension to yield the required final concentration followed by a 1 h incubation period in a CO2incubator at 37°C. The compound/vehicle treated cells were then transferred to the oxygen electrode chamber (pre-equilibrated to 37°C). Oxygen consumption was measured over a 30 minute period and the rate of oxygen consumption determined by plotting oxygen concentration against time and obtaining the slope of the line using the linear fit function within excel.

[3] = system: p(Ser^293)E1α in PC-3 cells; test: Immunoblot time course of biomarker suppression in PC-3 cells; assay type: cell-based; conditions: Fig. 2F
Description: Cell lysates were prepared by washing cells with PBS followed by the addition of lysis buffer (2% SDS, 50 mM TRIS-pH 6.8) directly to the well. Equal amounts of lysate were loaded onto pre-cast 4-12% SDS-PAGE gels (Life technologies) followed by transfer to PVDF membrane. The membranes were blocked for 1 h in TBST containing 5% non-fat dried milk, followed by a 2 h incubation with the relevant primary antibody: PDH phospho(Ser^293)E1α (Genescript, custom rabbit polyclonal antibody), 1:600; PDH E1α (Abcam), 1:1000; PDP-1 (Sigma), 1:2000; PDK-1 (ENZO), 1:1000; HSP-70 (Santa Cruz), 1:5000; β-tubulin (Cell signaling technology), 1:1000. The membranes were then incubated with HRP-linked goat anti-rabbit or anti-mouse secondary antibodies (Santa Cruz) followed by visualization of immunoreactive bands by the addition of a chemiluminescent substrate (Millipore).

PC-3 cells [4] = test: Sulforhodamine B cell mass assay, PC-3 cells; assay type: cell-based
Description: Compound cytotoxicity was determined using the Sulforhodamine B assay for cells cultured as a monolayer as described previously (45). For spheroid growth experiments, PC-3 cells were seeded (500 cells/well) into 96 well round bottom plates (Corning Costar 7007) in RPMI-1640 media containing 2.5% (w/v) Matrigel (BD Biosciences). […] Spheroid volumes were determined by obtaining diameter measurements from images taken on a Zeiss Axiovert 200M inverted microscope using the axiovision software.

[5] = system: HSP-70 induction in PC-3 cells (biomarker for HSP-90 inhibition); test: HSP-70 in-cell ELISA assay; assay type: cell-based; conditions: for EC50: PD marker (ELISA), PC-3 cells, 24 h
Description: DELFIA assay reagents (assay buffer, enhancement solution and europium-labeled secondary antibody) were obtained from Perkin Elmer (MD, USA). PC-3 cells were seeded (1×10^4 per well) into 96 well black-walled cell culture plates. The following day, the cells were treated with a 10 point tripling dilution series of test compound for 24 h followed by fixation with TBS containing 4% formaldehyde for 15 min at RT. The cells were then permeabilized the addition of permeabilization buffer (TBS containing 1% triton-X-100) and a further 15 min incubation at RT. The cells were then washed 3X with TBS, followed by the addition of quenching solution (TBS containing 1% H2O2), a 20 min incubation at RT and a further 3X wash with TBS. The permeabilized cells were then incubated for 30 minutes with blocking buffer (TBS containing 5% (w/v) dried milk) followed by a 90 min incubation with HSP-70 primary antibody (ENZO; 1:1000 dilution in TBS containing 200 μg/ml BSA). The wells were then washed 3X with wash buffer (TBS containing 0.1% Tween-20), followed by the addition of europium-labeled anti-mouse secondary antibody (1:1000 in DELFIA assay buffer) and a 1 h incubation at RT. The wells were then washed 3X with wash buffer followed by the addition of enhancement solution.

HSP-90 = target: T1, HSP-90 (Homo sapiens, UniProt P08238); test: HSP-90 fluorescence polarization assay; assay type: binding; conditions: read-out: HSP-90 FP, IC50
T1 construct: made in house
Description: The HSP-90ß FP assay was conducted as previously described.

[6] = system: PDC activity in PC-3 cells; test: Cellular PDC activity assay, PC-3; assay type: cell-based; conditions: magnitude greater for VER-246608
Description: Cellular PDC activity was determined using a commercial assay kit (Abcam) as per the manufacturer's instructions. Briefly, PC-3 and K562 cell suspensions at a density of 1×10^6 and 1.5×10^6, respectively, were transferred to 96 well plates (250 μL per well). Cells were pre-treated with compound or DMSO for 1 h in a CO2incubator at 37°C followed by cell lysis in 250 μL of a 9:1 dilution of assay kit detergent (containing 20 mM NaF and 40 μM of the PDK inhibitor VER-246550) for 10 min on ice. The cellular debris was then pelleted at 1000g for 10 min. A 200 μL aliquot of each lysate was then transferred to the immunocapture microplate. PDC reaction rates were determined from the slope of the reaction curves and expressed as a percentage of the vehicle (DMSO) control values.

T1 sequence (P08238 whole entry, species assumed): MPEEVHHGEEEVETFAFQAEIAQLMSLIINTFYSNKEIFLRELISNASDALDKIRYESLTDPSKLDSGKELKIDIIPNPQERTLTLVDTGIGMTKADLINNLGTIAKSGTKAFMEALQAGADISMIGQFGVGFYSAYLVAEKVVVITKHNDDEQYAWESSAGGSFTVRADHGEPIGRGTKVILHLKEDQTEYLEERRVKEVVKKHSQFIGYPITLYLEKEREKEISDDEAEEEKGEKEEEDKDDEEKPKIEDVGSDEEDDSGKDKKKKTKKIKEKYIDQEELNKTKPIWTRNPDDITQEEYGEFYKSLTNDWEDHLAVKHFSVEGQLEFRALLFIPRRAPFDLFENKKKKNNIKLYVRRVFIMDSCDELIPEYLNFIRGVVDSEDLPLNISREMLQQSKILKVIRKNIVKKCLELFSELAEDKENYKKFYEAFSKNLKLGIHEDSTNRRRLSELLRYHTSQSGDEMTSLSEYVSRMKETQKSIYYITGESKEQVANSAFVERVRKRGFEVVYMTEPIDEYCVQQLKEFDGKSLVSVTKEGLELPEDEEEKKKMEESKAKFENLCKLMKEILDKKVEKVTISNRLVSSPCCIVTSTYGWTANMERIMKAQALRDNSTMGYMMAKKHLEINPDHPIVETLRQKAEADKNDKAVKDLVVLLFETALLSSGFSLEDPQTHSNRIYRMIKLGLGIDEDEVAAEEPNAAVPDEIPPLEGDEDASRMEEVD

Compound | IC50 ([1]; PC-3, read-out: p(Ser^293)E1α (10% FCS), IC50, 10% FCS) | IC50 ([1]; PC-3 cells, 0% FCS, read-out: p(Ser^293)E1α (0% FCS), IC50) | Reduction in p(Ser^293)E1α levels ([1]; PC-3, 10 and 20 μM, 24 h, D-glucose/L-glutamine-depleted media) | Degree of suppression of p(Ser^293)E1α levels (plateau), reduction compared to DMSO control ([1]; PC-3 cells) | Increase in the rate of oxygen consumption (PC-3 cells [2]; 20 μM, 1 h pre-treatment) | Period of time to achieve maximal biomarker suppression [3] | Effect on growth in serum-free media or 0.1% serum (PC-3 cells [4]; PC-3, 20 μM, 120 h, 0% or 0.1% FCS) | Reduction in cell mass vs DMSO control (PC-3 cells [4]; PC-3, 20 μM, 120 h, D-glucose depletion with 15 mg/L L-glutamine) | Reduction in growth (PC-3 cells [4]; PC-3, 20 μM, 120 h, serum depleted conditions (0.5% FCS)) | EC50 ([5]; Homo sapiens) | Induction of HSP-70 in PC-3 cells ([5]; biomarker for HSP-90 inhibition) | IC50 (HSP-90) | Increase in PDC activity [6] | Effect on oxygen consumption rate (PC-3 cells [2]; concentrations ≥ 1μM (3 μM in Fig. 3B)) | Cytotoxicity/cytostasis-induction (PC-3 cells [4]; any of the culture conditions, up to a top concentration of 80 μM) | EC50 [5]
Cc1cnc(Cl)nc1-c1ccc(N(Cc2ccc(CNC(=O)C(F)F)cc2)C(=O)c2ccc(O)cc2O)cc1 [VER-246608] | 1.45 µM | 0.266 µM | > 70% | complete suppression | 66% | 16 min | complete suppression of growth | 50% | 70% | > 80 µM | lack of a detectable induction | > 100 µM | an increase in PDC activity |  |  | 
C[C@@H]1CN(C(=O)[C@](C)(O)C(F)(F)F)[C@@H](C)CN1C(=O)c1ccc(C#N)cc1 [Nov3r, reference compound] |  |  |  | approximately 60% |  | 16 min |  |  |  |  |  | > 200 µM | an increase in PDC activity | no discernible effect | no evidence of cytotoxicity/cytostasis-induction | > 80 µM

Source: publication PMC4350332 (Oncotarget, 2014)
